Experimental data published in patent publication US11642348B2, “Substituted benzene compounds” (Epizyme, Inc., priority 2012, dated 2023).

Tests used:
[1] = test system: H3K27me3 in WSU-DLCL2 cells; test: WSU-DLCL2 methylation assay (H3K27me3 ELISA); type: cell-based; settings: Homo sapiens, WSUDLCL2, Table 3B, 96 hours, read-out: ELISA H3K27me3 IC50
WSU-DLCL2 cells = test: Cell proliferation analysis (WSU-DLCL2, Cell Titer Glo); type: cell-based; settings: Homo sapiens, WSUDLCL2, Table 3B, 6 days, read-out: WSU proliferation IC50
[2] = target: wild-type EZH2 (PRC2 complex) (Homo sapiens (Human), UniProt Q15910); test: PRC2 enzyme assay on peptide substrates (wild-type EZH2); settings: read-out: WT EZH2 IC50; Table 3B; wild-type PRC2 enzyme, peptide substrate
Sequence of wild-type EZH2 (PRC2 complex) (Q15910 other isoform, or with tags, fused parts or gaps): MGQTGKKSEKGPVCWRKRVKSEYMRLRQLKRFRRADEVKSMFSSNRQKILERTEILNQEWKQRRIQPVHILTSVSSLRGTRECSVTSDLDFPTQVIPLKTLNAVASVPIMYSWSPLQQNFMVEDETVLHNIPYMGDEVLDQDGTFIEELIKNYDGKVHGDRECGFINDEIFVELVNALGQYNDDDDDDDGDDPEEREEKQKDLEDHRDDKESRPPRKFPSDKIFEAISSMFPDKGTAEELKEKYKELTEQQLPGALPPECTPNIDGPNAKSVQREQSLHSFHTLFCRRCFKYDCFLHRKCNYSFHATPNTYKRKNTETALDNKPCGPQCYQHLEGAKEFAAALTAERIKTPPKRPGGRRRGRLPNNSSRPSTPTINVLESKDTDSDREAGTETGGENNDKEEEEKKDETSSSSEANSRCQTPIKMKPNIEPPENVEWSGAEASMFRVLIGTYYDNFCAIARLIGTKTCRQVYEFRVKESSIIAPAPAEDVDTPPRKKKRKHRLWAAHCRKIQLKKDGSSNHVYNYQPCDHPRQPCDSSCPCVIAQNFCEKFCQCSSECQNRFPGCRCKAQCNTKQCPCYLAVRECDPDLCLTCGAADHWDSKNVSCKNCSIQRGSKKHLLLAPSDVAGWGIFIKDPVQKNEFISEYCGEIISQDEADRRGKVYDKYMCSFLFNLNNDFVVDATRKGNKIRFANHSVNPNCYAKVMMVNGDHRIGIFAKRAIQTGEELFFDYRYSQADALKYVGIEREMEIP
Sequence of wild-type EZH2 (PRC2 complex) (O75530 whole entry partner): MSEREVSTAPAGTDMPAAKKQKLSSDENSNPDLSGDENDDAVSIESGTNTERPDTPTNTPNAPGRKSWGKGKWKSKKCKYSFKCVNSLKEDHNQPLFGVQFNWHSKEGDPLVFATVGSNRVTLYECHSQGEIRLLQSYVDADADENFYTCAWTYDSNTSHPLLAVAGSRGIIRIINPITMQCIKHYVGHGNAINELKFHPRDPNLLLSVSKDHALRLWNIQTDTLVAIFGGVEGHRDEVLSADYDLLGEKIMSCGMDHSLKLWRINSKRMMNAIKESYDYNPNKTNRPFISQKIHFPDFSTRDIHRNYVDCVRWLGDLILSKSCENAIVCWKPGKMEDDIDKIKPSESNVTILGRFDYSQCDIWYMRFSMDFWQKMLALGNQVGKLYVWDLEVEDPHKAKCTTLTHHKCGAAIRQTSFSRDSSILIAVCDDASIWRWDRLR
Sequence of wild-type EZH2 (PRC2 complex) (Q15022 whole entry partner): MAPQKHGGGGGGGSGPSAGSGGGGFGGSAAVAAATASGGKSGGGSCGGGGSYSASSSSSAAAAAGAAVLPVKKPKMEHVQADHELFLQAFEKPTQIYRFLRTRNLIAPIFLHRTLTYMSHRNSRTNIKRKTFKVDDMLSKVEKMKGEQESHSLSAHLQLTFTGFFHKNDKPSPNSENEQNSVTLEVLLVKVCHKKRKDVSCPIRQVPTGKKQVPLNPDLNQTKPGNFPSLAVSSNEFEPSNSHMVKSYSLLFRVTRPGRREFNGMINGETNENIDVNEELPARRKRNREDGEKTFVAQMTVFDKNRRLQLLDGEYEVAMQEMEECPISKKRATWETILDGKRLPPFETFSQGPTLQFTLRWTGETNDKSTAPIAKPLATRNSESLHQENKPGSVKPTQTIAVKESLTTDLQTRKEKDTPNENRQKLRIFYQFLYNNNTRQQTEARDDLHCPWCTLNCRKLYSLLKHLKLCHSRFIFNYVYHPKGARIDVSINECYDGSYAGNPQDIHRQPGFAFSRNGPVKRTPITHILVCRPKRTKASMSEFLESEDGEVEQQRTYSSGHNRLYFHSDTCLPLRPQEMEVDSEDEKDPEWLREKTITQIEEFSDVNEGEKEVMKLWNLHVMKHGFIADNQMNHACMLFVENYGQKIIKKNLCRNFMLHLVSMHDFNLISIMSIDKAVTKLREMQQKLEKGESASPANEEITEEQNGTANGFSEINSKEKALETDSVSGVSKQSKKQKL
Sequence of wild-type EZH2 (PRC2 complex) (Q09028 whole entry partner): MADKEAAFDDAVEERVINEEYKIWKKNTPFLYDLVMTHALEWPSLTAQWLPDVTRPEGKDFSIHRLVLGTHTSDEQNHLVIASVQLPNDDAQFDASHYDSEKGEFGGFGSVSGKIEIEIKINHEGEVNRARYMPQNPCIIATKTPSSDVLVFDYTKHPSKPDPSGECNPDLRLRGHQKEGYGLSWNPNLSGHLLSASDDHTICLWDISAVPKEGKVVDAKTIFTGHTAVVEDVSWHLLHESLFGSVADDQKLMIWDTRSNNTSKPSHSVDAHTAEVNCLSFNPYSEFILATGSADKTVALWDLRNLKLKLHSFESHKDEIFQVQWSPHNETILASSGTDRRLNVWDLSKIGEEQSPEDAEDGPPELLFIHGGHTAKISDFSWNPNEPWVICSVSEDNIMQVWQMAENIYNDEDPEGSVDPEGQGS

Compound | IC50 [1] | IC50 [2] | IC50 (WSU-DLCL2 cells)
CCN(c1cc(-c2ccc(CN3CC[C@H](O)C3)nc2)cc(C(=O)NCc2c(C)cc(C)[nH]c2=O)c1C)[C@H]1CC[C@H](N(C)C)CC1 [Compound 148, N-((4,6-Dimethyl-2-oxo-1,2-dihydropyridin-3-yl)methyl)-3-((4-trans-(dimethylamino)cyclohexyl)(ethyl)amino)-5-(6-(((S)-3-hydroxypyrrolidin-1-yl)methyl)pyridin-3-yl)-2-methylbenzamide] | 504 nM | < 10 nM | 243 nM
CCN(c1cc(-c2ccc(CN3CC(O)C3)nc2)cc(C(=O)NCc2c(C)cc(C)[nH]c2=O)c1C)[C@H]1CC[C@H](N(C)C)CC1 [Compound 151] | 618 nM | < 10 nM | 682 nM
CCN(c1cc(-c2ccc(C(=O)NCCO)cc2)cc(C(=O)NCc2c(C(C)C)cc(C)[nH]c2=O)c1C)C1CCOCC1 [Compound 156] | 684 nM | < 10 nM | 890 nM

Now those with a lower IC50 [1], led by results:

IC50 [1] | IC50 [2] | Compound | IC50 (WSU-DLCL2 cells)
20 nM | < 10 nM | CCN(c1cc(-c2cnc(N3CCN(C)CC3)cn2)cc(C(=O)NCc2c(C)cc(C)[nH]c2=O)c1C)[C@H]1CC[C@H](N(C)C)CC1 [Compound 149] | 316 nM
377 nM | < 10 nM | CCN(c1cc(-c2ccc(CN3CC[C@H](O)C3)nc2)cc(C(=O)NCc2c(C(C)C)cc(C)[nH]c2=O)c1C)[C@H]1CC[C@H](N(C)C)CC1 [Compound 150] | 361 nM
60 nM | 18 nM | CCN(c1cc(-c2ccc(COC)nc2)cc(C(=O)NCc2c(C)cc(C)[nH]c2=O)c1C)[C@H]1CC[C@H](N(C)C)CC1 [Compound 152] | 412 nM
